According to patent publication US10082509B2 (priority 2013, dated 2018):
“Also recorded” adds a separate entry of the source. Like-named read-outs stand apart in the source and are kept apart here.

Tests used:
Legionella pneumophila = format: cell-based; details: for membrane labelling: FIG. 4; for labelling / metabolic incorporation: L. pneumophila strains, laboratory in vitro conditions, FIG. 7
E. coli K12 (MG1655) = format: cell-based, Escherichia coli
[1] = system: P. aeruginosa (ATCC 9027); format: cell-based, Pseudomonas aeruginosa
[2] = system: L. gormanii, L. maceachernii, L. micdadei, L. anisa, L. feeli, L. jordanis, L. tucsonensis and L. bozemanii; format: cell-based, Legionella spp.

| Structure (SMILES) | membrane labelling (Legionella pneumophila; L. pneumophila strain of serogroup 7) | labelling / metabolic incorporation (Legionella pneumophila) | membrane fluorescence / metabolic incorporation of the azido chemical reporter into LPS (Legionella pneumophila; four L. pneumophila serogroup 1 strains (incl. Philadelphia, Paris, Lens), 4 mM, 12 hours, 37° C., FIG. 3) | membrane labelling (Legionella pneumophila; four L. pneumophila strains of serogroups 3, 4, 5, 6) | labelling / metabolic incorporation (E. coli K12 (MG1655)) | labelling / metabolic incorporation [1] | membrane fluorescence / metabolic incorporation [2] |
| --- | --- | --- | --- | --- | --- | --- | --- |
| CC(=O)N[C@H]1[C@H](O)[C@H](NC(C)=O)C(O)O[C@@H]1CN=[N+]=[N-] (some centres unmarked) | absence of labelling | efficiently labelled | highly distinctive fluorescence on their membrane | very bright membrane labelling | not incorporated; also recorded: failed to show any labelling | not incorporated; also recorded: failed to show any labelling | not incorporated; also recorded: no membrane fluorescence was observed |
| CC(=O)NC1C(O)OC(CN=[N+]=[N-])[C@@H](NC(C)=O)[C@@H]1OC(C)=O (some centres unmarked) | – | not incorporated; also recorded: No labelling was observed | – | – | – | – | – |
